For 6 molecules, IC50 results are on record in patent US20260131016A1, “NOVEL AURISTATIN ANALOGS AND IMMUNOCONJUGATES THEREOF” (ADCENTRX THERAPEUTICS INC., priority 2021, published 2026).

For this experiment, the system named is HCC1954 breast ductal carcinoma. In words: Cell viability (Cell Titer Glo 2.0) in HCC1954, 120 hours. The experiment is classed as cell-based. The following applies: for IC50: Homo sapiens, HCC1954, 120 h, read-out: IC50 (nM), in vitro potency in HCC1954; for pIC50: Trastuzumab conjugate of the numbered linker-payload, HCC1954, read-out: ADC (Trastuzumab) IC50 in HCC1954 assay. The procedure: HCC1954 breast ductal carcinoma and T47D cells (ATCC, Manassas, VA, USA) were seeded into 384-well white-walled culture plates and allowed to adhere for 2-4 hours. Cells were then treated at least in duplicate by addition of 5-fold serially diluted test articles prepared at 2× final concentration and incubated at 37° C. for 120 hours. Cell viability following treatment was determined by Cell Titer Glo 2.0 Assay (Promega, Madison, WI, USA) and normalized to non-treated controls. Dose-response relationships were analyzed using GraphPad Prism (La Jolla, CA, USA), and IC50 values were derived from non-linear regression analyses using a 4-parameter logistic equation.
(In general: Cellular ATP, detected with luciferase, serves as a proxy for viable cell number.)

Each structure is given as a SMILES string. pIC50: −log10 of the molar value. Read-outs that look alike come from different tables or passages of the source.

`CC[C@H](C)[C@@H]([C@@H](CC(=O)N1CCC[C@H]1[C@H](OC)[C@@H](C)C(=O)N(C)CCc1ccccc1N)OC)N(C)C(=O)[C@@H](NC(=O)[C@@H](C(C)C)N(C)C)C(C)C` [Compound 15, (S)-N-((3R,4S,5S)-1-((S)-2-((1R,2R)-3-((2-aminophenethyl)(methyl)amino)-1-methoxy-2-methyl-3-oxopropyl)pyrrolidin-1-yl)-3-methoxy-5-methyl-1-oxoheptan-4-yl)-2-((R)-2-(dimethylamino)-3-methylbutanamido)-N,3-dimethylbutanamide]: the IC50 is less than 5 nM. Regarding `CC[C@H](C)[C@@H]([C@@H](CC(=O)N1CCC[C@H]1[C@H](OC)[C@@H](C)C(=O)N(C)CCc1ccccc1N)OC)N(C)C(=O)[C@@H](NC(=O)[C@@H](C)N(C)C)C(C)C` [Compound 17, (S)-N-((3R,4S,5S)-1-((S)-2-((1R,2R)-3-((2-aminophenethyl)(methyl)amino)-1-methoxy-2-methyl-3-oxopropyl)pyrrolidin-1-yl)-3-methoxy-5-methyl-1-oxoheptan-4-yl)-2-((R)-2-(dimethylamino)propanamido)-N,3-dimethylbutanamide], the IC50 is less than 5 nM. Still for that read-out and setting: for `CC[C@H](C)[C@@H]([C@@H](CC(=O)N1CCC[C@H]1[C@H](OC)[C@@H](C)C(=O)N(C)CCc1ccccc1N)OC)N(C)C(=O)[C@@H](NC(=O)CN(C)C)C(C)C` [Compound 18, (S)-N-((3R,4S,5S)-1-((S)-2-((1R,2R)-3-((2-aminophenethyl)(methyl)amino)-1-methoxy-2-methyl-3-oxopropyl)pyrrolidin-1-yl)-3-methoxy-5-methyl-1-oxoheptan-4-yl)-2-(2-(dimethylamino)acetamido)-N,3-dimethylbutanamide] the value was 5 to 10 nM. On the same count and under the same terms, for `CC[C@H](C)[C@@H]([C@@H](CC(=O)N1CCC[C@H]1[C@H](OC)[C@@H](C)C(=O)N(C)CCc1ccc(N)cc1)OC)N(C)C(=O)[C@@H](NC(=O)CN(C)C)C(C)C` [Compound 27, (S)-N-((3R,4S,5S)-1-((S)-2-((IR,2R)-3-((4-aminophenethyl)(methyl)amino)-1-methoxy-2-methyl-3-oxopropyl)pyrrolidin-1-yl)-3-methoxy-5-methyl-1-oxoheptan-4-yl)-2-(2-(dimethylamino)acetamido)-N,3-dimethylbutanamide] the value was less than 5 nM. Turning to `CC[C@H](C)[C@@H]([C@@H](CC(=O)N1CCC[C@H]1[C@H](OC)[C@@H](C)C(=O)N(C)CCc1cccc(NC(=O)[C@H](C)NC(=O)[C@H](C)NC(=O)CN2C(=O)C=CC2=O)c1)OC)N(C)C(=O)[C@@H](NC(=O)[C@H](C(C)C)N(C)C)C(C)C` [Compound 28, (S)-2-((S)-2-(dimethylamino)-3-methylbutanamido)-N-((3R,4S,5S)-1-((S)-2-((1R,2R)-3-((3-((S)-2-((S)-2-(2-(2,5-dioxo-2,5-dihydro-1H-pyrrol-1-yl)acetamido)propanamido)propanamido)phenethyl)(methyl)amino)-1-methoxy-2-methyl-3-oxopropyl)pyrrolidin-1-yl)-3-methoxy-5-methyl-1-oxoheptan-4-yl)-N,3-dimethylbutanamide 2,2,2-trifluoroacetate], the pIC50 was more than 8.30. On the same count and under the same terms, for `CC[C@H](C)[C@@H]([C@@H](CC(=O)N1CCC[C@H]1[C@H](OC)[C@@H](C)C(=O)N(C)CCc1cccc(NC(=O)[C@H](C)NC(=O)[C@H](C)NC(=O)CN2C(=O)C=CC2=O)c1)OC)N(C)C(=O)[C@@H](NC(=O)[C@H](C)N(C)C)C(C)C` [Compound 29, (S)-2-((S)-2-(dimethylamino)propanamido)-N-((3R,4S,5S)-1-((S)-2-((1R,2R)-3-((3-((S)-2-((S)-2-(2-(2,5-dioxo-2,5-dihydro-1H-pyrrol-1-yl)acetamido)propanamido)propanamido)phenethyl)(methyl)amino)-1-methoxy-2-methyl-3-oxopropyl)pyrrolidin-1-yl)-3-methoxy-5-methyl-1-oxoheptan-4-yl)-N,3-dimethylbutanamide 2,2,2-trifluoroacetate] the value was more than 8.30.

Usually IC50 stands for the concentration at which inhibition is half-maximal. The term pIC50 denotes the IC50 on a negative log10 scale, so that one unit is a factor of ten.
